Measurements: ChEMBL document CHEMBL4507262, “Data for DCP probe A-1596586” (2021)

Assays:
[1] = target: Alpha-2C adrenergic receptor (Homo sapiens) (UniProt P18825); conditions: Compound concentration 10.0 uM
[2] = target: Serine/threonine-protein kinase TAO3 (Homo sapiens) (UniProt Q9H2K8); conditions: Compound concentration 1000.0 nM
[3] = target: Serine/threonine-protein kinase WNK1 (Homo sapiens) (UniProt Q9H4A3); conditions: Compound concentration 1000.0 nM
[4] = target: Type-1 angiotensin II receptor (Homo sapiens) (UniProt P30556); assay: AT1 (h) Eurofins-Cerep binding assay; design: ligand concentration 0.05 nM; conditions: filed as antagonist, Compound concentration 10.0 uM
[5] = target: High affinity nerve growth factor receptor (Homo sapiens) (UniProt P04629); conditions: Compound concentration 1000.0 nM
[6] = target: Casein kinase I isoform gamma-3 (Homo sapiens) (UniProt Q9Y6M4); conditions: Compound concentration 1000.0 nM
[7] = target: Interferon-induced, double-stranded RNA-activated protein kinase (Homo sapiens) (UniProt P19525); conditions: Compound concentration 1000.0 nM
[8] = target: STE20-like serine/threonine-protein kinase (Homo sapiens) (UniProt Q9H2G2); conditions: Compound concentration 1000.0 nM
[9] = target: Platelet-derived growth factor receptor alpha (Homo sapiens) (UniProt P16234); conditions: Compound concentration 1000.0 nM
Platelet-derived growth factor receptor alpha (Homo sapiens), sequence (P16234 whole entry): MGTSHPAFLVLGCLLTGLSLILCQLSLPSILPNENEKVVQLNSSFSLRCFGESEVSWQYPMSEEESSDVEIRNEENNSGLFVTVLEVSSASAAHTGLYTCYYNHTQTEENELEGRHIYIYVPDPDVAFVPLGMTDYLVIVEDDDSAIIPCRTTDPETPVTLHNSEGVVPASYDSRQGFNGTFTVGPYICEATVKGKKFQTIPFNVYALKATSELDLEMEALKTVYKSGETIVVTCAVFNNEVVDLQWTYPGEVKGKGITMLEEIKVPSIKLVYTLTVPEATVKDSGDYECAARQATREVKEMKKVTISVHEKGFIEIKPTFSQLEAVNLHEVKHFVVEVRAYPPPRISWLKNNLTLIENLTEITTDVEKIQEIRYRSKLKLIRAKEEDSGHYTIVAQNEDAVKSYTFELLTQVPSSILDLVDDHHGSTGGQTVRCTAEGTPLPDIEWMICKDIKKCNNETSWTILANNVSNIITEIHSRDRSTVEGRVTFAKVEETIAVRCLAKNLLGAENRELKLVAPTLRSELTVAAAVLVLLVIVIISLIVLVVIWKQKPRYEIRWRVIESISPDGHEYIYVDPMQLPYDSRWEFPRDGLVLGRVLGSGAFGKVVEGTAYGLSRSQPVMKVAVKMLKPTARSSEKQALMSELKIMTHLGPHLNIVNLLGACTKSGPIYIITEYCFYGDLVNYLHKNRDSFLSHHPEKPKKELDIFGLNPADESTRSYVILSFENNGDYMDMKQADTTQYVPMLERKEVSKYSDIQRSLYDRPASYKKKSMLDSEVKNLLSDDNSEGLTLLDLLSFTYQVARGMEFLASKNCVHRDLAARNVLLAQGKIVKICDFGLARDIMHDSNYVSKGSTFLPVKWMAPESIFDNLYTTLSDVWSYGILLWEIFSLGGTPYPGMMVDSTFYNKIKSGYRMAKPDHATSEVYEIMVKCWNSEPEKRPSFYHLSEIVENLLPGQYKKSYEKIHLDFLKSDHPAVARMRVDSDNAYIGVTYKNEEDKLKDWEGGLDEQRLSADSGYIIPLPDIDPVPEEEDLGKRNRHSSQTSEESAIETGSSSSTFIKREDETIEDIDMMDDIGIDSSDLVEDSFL

[10] = target: Ribosomal protein S6 kinase alpha-6 (Homo sapiens) (UniProt Q9UK32); conditions: Compound concentration 1000.0 nM
Ribosomal protein S6 kinase alpha-6 (Homo sapiens), sequence (Q9UK32 whole entry): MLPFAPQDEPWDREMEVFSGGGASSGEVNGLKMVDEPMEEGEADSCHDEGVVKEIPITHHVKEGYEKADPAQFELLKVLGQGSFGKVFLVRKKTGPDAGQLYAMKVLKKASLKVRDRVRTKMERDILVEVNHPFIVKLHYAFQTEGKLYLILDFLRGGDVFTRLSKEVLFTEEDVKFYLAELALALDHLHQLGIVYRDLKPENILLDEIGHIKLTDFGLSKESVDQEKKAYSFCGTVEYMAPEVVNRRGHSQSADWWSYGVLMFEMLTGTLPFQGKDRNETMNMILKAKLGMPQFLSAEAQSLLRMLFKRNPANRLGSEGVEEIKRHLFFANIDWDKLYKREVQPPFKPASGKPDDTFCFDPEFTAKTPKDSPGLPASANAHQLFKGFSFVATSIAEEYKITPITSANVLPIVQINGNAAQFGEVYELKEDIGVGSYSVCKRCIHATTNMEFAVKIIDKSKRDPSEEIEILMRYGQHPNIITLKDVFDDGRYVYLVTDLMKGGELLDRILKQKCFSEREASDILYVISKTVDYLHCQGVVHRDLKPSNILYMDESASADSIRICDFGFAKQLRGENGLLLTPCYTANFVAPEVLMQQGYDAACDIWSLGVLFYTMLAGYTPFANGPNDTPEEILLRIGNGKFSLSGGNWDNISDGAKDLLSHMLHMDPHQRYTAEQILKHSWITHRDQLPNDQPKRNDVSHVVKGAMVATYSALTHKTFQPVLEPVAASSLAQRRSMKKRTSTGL

[11] = target: Ribosomal protein S6 kinase alpha-3 (Homo sapiens) (UniProt P51812); conditions: Compound concentration 1000.0 nM
Ribosomal protein S6 kinase alpha-3 (Homo sapiens), sequence (P51812 whole entry): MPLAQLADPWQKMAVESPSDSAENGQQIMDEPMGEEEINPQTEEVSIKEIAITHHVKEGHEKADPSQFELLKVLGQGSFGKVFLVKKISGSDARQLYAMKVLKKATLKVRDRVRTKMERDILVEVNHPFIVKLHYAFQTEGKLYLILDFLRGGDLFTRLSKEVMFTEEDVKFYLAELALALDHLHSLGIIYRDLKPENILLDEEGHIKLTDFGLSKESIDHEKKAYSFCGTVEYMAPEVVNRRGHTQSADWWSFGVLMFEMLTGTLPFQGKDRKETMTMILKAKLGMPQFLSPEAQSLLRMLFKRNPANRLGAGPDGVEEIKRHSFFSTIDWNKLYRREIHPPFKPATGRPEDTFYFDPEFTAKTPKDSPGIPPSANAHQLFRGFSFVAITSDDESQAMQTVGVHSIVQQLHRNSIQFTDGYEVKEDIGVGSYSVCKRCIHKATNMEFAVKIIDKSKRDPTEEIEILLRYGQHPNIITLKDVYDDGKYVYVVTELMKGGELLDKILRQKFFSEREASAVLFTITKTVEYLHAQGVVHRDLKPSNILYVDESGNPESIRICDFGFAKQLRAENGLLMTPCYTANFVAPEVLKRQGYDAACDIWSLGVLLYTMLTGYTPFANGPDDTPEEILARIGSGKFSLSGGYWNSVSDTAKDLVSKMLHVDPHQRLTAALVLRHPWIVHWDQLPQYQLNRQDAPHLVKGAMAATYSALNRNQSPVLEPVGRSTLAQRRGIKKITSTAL

[12] = target: Tyrosine-protein kinase JAK2 (Homo sapiens) (UniProt O60674); conditions: Compound concentration 1000.0 nM
[13] = target: Serine/threonine-protein kinase Nek7 (Homo sapiens) (UniProt Q8TDX7); conditions: Compound concentration 1000.0 nM
[14] = target: Mitogen-activated protein kinase kinase kinase kinase 2 (Homo sapiens) (UniProt Q12851); conditions: Compound concentration 1000.0 nM
[15] = target: MAO-B (amine oxidase [flavin-containing] B) (Homo sapiens, UniProt P27338); assay: MAO-B (h) recombinant enzyme Eurofins-Cerep enzyme and uptake assay; design: incubation time 60 min, incubation temperature 37°C, substrate/stimulus/tracer D-Luciferin derivative (4 µM); conditions: probe D-Luciferin derivative (4 µM), compound concentration 10 uM, read-out: % Inhibition of Control Values (Mean n=2)
[16] = target: Phosphatidylinositol 4,5-bisphosphate 3-kinase catalytic subunit alpha isoform (Homo sapiens) (UniProt P42336); conditions: Compound concentration 1000.0 nM
[17] = test system: Mast/stem cell growth factor receptor Kit (Homo sapiens), P10721 [V559D,V654A]; conditions: Compound concentration 1000.0 nM
[18] = target: Sigma non-opioid intracellular receptor 1 (Homo sapiens, UniProt Q99720); assay: GPCRScan assay: inhibition of Sigma 1; design: radioligand conc. used [nm] 4.0 – 5.0, parental cells HEKT
Sigma non-opioid intracellular receptor 1, sequence (Q99720 whole entry): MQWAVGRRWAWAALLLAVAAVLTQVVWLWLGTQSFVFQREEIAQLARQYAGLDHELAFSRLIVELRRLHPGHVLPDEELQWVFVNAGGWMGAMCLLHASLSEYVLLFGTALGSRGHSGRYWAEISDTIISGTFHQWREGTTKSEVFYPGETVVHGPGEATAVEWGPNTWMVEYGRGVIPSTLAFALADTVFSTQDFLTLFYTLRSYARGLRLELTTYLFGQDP

[19] = target: Dual specificity tyrosine-phosphorylation-regulated kinase 2 (Homo sapiens) (UniProt Q92630); conditions: Compound concentration 1000.0 nM
[20] = target: Serine/threonine-protein kinase MARK2 (Homo sapiens) (UniProt Q7KZI7); conditions: Compound concentration 1000.0 nM
Serine/threonine-protein kinase MARK2 (Homo sapiens), sequence (Q7KZI7 whole entry): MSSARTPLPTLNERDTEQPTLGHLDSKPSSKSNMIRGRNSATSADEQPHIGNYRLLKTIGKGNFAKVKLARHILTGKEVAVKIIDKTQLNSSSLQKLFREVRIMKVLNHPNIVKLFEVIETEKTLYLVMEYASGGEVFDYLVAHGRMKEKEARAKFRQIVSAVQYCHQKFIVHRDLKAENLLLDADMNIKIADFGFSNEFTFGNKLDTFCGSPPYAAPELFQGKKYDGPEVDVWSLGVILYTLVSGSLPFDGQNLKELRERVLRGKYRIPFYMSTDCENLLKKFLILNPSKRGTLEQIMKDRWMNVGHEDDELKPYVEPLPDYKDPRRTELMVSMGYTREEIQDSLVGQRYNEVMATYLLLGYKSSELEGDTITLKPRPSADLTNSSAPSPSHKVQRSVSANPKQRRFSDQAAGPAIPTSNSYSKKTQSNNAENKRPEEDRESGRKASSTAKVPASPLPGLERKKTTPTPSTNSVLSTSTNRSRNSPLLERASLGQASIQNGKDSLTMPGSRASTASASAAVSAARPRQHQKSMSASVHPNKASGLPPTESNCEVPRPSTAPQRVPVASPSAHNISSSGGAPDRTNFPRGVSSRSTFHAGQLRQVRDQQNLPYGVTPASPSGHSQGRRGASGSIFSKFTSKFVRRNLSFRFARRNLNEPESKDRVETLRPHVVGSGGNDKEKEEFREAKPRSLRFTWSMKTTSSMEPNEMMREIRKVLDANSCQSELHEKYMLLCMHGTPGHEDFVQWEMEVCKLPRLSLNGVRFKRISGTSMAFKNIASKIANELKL

[21] = target: Ribosomal protein S6 kinase alpha-2 (Homo sapiens) (UniProt Q15349); conditions: Compound concentration 1000.0 nM
[22] = target: T1, 5-hydroxytryptamine receptor 3A (Homo sapiens) (UniProt P46098); assay: 5-HT3 (h) Eurofins-Cerep binding assay; design: ligand concentration 0.5 nM; conditions: filed as antagonist, Compound concentration 10.0 uM
T1 sequence (whole entry): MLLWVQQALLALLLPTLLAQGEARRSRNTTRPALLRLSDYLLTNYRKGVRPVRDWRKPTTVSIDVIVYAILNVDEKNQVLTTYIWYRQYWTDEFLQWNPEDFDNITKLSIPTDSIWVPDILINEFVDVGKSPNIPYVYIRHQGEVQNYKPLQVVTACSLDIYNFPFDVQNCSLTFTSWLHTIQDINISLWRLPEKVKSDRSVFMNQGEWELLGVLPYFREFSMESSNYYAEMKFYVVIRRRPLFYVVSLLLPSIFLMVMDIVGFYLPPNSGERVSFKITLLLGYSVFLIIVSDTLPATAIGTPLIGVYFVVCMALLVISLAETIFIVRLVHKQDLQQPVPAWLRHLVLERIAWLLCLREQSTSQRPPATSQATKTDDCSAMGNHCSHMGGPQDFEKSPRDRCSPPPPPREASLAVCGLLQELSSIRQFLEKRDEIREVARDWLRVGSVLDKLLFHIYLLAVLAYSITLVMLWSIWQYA

[23] = target: Phosphatidylinositol 5-phosphate 4-kinase type-2 gamma (Homo sapiens) (UniProt Q8TBX8); conditions: Compound concentration 1000.0 nM
[24] = test system: Epidermal growth factor receptor (Homo sapiens), P00533 [UNDEFINED MUTATION]; conditions: Compound concentration 1000.0 nM
[25] = target: Mitogen-activated protein kinase 3 (Homo sapiens) (UniProt P27361); conditions: Compound concentration 1000.0 nM
[26] = target: Non-receptor tyrosine-protein kinase TYK2 (Homo sapiens) (UniProt P29597); conditions: Compound concentration 1000.0 nM
[27] = target: Delta-type opioid receptor (Homo sapiens) (UniProt P41143); assay: delta (DOP) (h) Eurofins-Cerep binding assay; design: ligand concentration 0.5 nM; conditions: filed as agonist, Compound concentration 10.0 uM
[28] = target: Mitogen-activated protein kinase kinase kinase 19 (Homo sapiens) (UniProt Q56UN5); conditions: Compound concentration 1000.0 nM
[29] = test system: ALK tyrosine kinase receptor (Homo sapiens), Q9UM73 [L1196M]; conditions: Compound concentration 1000.0 nM
[30] = target: Serine/threonine-protein kinase PLK2 (Homo sapiens) (UniProt Q9NYY3); conditions: Compound concentration 1000.0 nM
Serine/threonine-protein kinase PLK2 (Homo sapiens), sequence (Q9NYY3 whole entry, looked up, canonical isoform): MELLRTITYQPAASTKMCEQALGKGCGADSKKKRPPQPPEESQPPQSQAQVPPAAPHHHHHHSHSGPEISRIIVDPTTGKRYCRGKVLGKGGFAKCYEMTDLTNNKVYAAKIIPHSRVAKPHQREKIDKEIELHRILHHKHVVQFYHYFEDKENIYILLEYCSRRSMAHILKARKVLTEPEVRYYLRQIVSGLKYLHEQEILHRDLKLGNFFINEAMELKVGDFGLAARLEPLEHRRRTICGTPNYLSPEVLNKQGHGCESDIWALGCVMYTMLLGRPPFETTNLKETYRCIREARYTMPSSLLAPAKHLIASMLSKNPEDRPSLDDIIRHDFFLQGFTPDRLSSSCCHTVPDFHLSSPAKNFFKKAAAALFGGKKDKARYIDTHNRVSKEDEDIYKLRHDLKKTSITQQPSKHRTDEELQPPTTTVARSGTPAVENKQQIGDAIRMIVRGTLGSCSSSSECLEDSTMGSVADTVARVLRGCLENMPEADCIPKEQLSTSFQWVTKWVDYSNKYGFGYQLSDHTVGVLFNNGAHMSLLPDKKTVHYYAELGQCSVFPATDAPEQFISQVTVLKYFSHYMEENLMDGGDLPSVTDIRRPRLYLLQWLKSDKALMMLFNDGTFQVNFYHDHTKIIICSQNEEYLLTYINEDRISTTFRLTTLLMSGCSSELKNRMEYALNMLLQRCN

[31] = target: Phosphorylase b kinase regulatory subunit alpha, liver isoform (Homo sapiens) (UniProt P46019); conditions: Compound concentration 1000.0 nM
[32] = target: Ephrin type-B receptor 6 (Homo sapiens) (UniProt O15197); conditions: Compound concentration 1000.0 nM
[33] = target: Tyrosine-protein kinase Blk (Homo sapiens) (UniProt P51451); conditions: Compound concentration 1000.0 nM
Tyrosine-protein kinase Blk (Homo sapiens), sequence (P51451 2-505 limits assumed): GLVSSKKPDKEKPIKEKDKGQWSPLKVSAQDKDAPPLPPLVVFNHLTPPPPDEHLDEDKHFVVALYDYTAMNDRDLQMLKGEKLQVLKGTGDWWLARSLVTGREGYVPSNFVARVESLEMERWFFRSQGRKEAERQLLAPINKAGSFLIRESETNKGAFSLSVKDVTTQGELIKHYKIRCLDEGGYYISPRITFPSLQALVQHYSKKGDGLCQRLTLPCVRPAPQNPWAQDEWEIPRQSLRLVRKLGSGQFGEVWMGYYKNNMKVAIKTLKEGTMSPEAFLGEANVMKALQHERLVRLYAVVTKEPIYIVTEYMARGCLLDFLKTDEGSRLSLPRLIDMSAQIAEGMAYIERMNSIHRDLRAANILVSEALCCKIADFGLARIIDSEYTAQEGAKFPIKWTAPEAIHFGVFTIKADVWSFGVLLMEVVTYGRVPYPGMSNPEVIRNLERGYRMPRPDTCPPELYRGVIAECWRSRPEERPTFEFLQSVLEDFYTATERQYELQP

[34] = target: Rhodopsin kinase GRK1 (Homo sapiens) (UniProt Q15835); conditions: Compound concentration 1000.0 nM
[35] = target: Tyrosine-protein kinase Lyn (Homo sapiens) (UniProt P07948); conditions: Compound concentration 1000.0 nM
[36] = target: Ephrin type-B receptor 2 (Homo sapiens) (UniProt P29323); conditions: Compound concentration 1000.0 nM
[37] = target: Testis-specific serine/threonine-protein kinase 3 (Homo sapiens) (UniProt Q96PN8); conditions: Compound concentration 1000.0 nM
Testis-specific serine/threonine-protein kinase 3 (Homo sapiens), sequence (Q96PN8 whole entry): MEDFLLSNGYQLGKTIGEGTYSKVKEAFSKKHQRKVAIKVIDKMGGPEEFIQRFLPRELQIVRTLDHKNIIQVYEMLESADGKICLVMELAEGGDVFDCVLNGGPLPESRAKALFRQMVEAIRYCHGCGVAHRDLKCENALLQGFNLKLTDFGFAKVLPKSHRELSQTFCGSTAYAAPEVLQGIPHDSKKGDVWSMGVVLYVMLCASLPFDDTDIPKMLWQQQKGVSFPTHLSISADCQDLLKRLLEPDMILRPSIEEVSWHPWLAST

Row | Structure (SMILES) | inhibition [1] [%] | residual activity [2] [%] | residual activity [3] [%] | % Inhibition of Control Specific Binding (Mean n=2) [4] [%] | residual activity [5] [%] | residual activity [6] [%] | residual activity [7] [%] | residual activity [8] [%] | residual activity [9] [%] | residual activity [10] [%] | residual activity [11] [%] | residual activity [12] [%] | residual activity [13] [%] | residual activity [14] [%] | inhibition at 60 min, 10 µM [15] [%] | residual activity [16] [%] | residual activity [17] [%] | Ki [18] [µM] | residual activity [19] [%] | residual activity [20] [%] | also measured
1 | COc1ccc2c(c1)O[C@H](c1ccc(OC)c(OC)c1)C[C@@H]2NC(=O)C1(c2ccc3c(c2)OC(F)(F)O3)CC1 [A-1596584] | 10.1 | 100 | 100 | 12.3 | 100 | 100 | 100 | 100 | 87 | 91 | 74 | 98 | 100 | 99 | 16.7 | 82 | 100 | 2.74 | 100 | 100 | residual activity [21]: 100%; % Inhibition of Control Specific Binding (Mean n=2) [22]: 0.8%; residual activity [23]: 83%; residual activity [24]: 59%; residual activity [25]: 100%; residual activity [26]: 100%; % Inhibition of Control Specific Binding (Mean n=2) [27]: 2.2%; residual activity [28]: 100%; residual activity [29]: 100%; residual activity [30]: 100%; residual activity [31]: 93%; residual activity [32]: 85%; residual activity [33]: 100%; residual activity [34]: 97%; residual activity [35]: 88%; residual activity [36]: 84%; residual activity [37]: 100%
2 | COc1ccc2c(c1)O[C@@H](c1ccc(OC)c(OC)c1)C[C@H]2NC(=O)C1(c2ccc3c(c2)OC(F)(F)O3)CC1 [A-1596586] | 15.8 | 91 | 100 | -1.1 | 100 | 100 | 100 | 100 | 78 | 91 | 81 | 75 | 100 | 87 | 11.9 | 86 | 100 | 0.315 | 75 | 92 | residual activity [21]: 90%; % Inhibition of Control Specific Binding (Mean n=2) [22]: -3%; residual activity [23]: 83%; residual activity [24]: 62%; residual activity [25]: 89%; residual activity [26]: 91%; % Inhibition of Control Specific Binding (Mean n=2) [27]: 8.8%; residual activity [28]: 83%; residual activity [29]: 90%; residual activity [30]: 81%; residual activity [31]: 82%; residual activity [32]: 61%; residual activity [33]: 91%; residual activity [34]: 95%; residual activity [35]: 100%; residual activity [36]: 100%; residual activity [37]: 57%
